US20130172246A1, “INSULIN GLARGINE VERSUS METFORMIN FOR THE FIRST-LINE TREATMENT OF EARLY TYPE-2 DIABETES” (priority 2011, published 2013)
Where two headings read alike, the source gives them in different places.

Columns and labels:
type 2 diabetes patients [1] = test: Parameters of beta-cell function (insulin, proinsulin, C-peptide, HOMA) fasting and 2 h after test meal; assay type: in vivo, human; conditions: for ratio of proinsulin to C-peptide: after treatment, indicating improvement in beta-cell function; for Insulin-C-peptide ratio - change, 2 h after test meal / Insulin-C-peptide ratio - change, Fasting / Proinsulin-C-peptide ratio - change, 2 h after test meal / Proinsulin-C-peptide ratio - change, Fasting / HOMA - change / Insulin-proinsulin ratio - change, 2 h after test meal / Insulin-proinsulin ratio - change, Fasting / C-peptide - change, 2 h after test meal / C-peptide - change, Fasting / Insulin - change, 2 h after test meal / Insulin - change, Fasting / Proinsulin - change, 2 h after test meal / Proinsulin - change, Fasting / Insulin-C-peptide ratio - visit 8, 2 h after test meal / Insulin-C-peptide ratio - visit 8, Fasting / Proinsulin-C-peptide ratio - visit 8, 2 h after test meal / Proinsulin-C-peptide ratio - visit 8, Fasting / HOMA - visit 8 / Insulin-proinsulin ratio - visit 8, 2 h after test meal / Insulin-proinsulin ratio - visit 8, Fasting / C-peptide - visit 8, 2 h after test meal / C-peptide - visit 8, Fasting / Insulin - visit 8, 2 h after test meal / Insulin - visit 8, Fasting / Proinsulin - visit 8, 2 h after test meal / Proinsulin - visit 8, Fasting: per protocol; for Insulin-C-peptide ratio - change, 2 h after test meal / Insulin-C-peptide ratio - change, Fasting / Proinsulin-C-peptide ratio - change, 2 h after test meal / Proinsulin-C-peptide ratio - change, Fasting / HOMA - change / Insulin-proinsulin ratio - change, 2 h after test meal / Insulin-proinsulin ratio - change, Fasting / C-peptide - change, 2 h after test meal / C-peptide - change, Fasting / Insulin - change, 2 h after test meal / Insulin - change, Fasting / Proinsulin - change, 2 h after test meal / Proinsulin - change, Fasting: change visit 1 to visit 8; for Insulin-C-peptide ratio - change, 2 h after test meal / Insulin-C-peptide ratio - change, Fasting / Proinsulin-C-peptide ratio - change, 2 h after test meal / Proinsulin-C-peptide ratio - change, Fasting / Insulin-C-peptide ratio - visit 8, 2 h after test meal / Insulin-C-peptide ratio - visit 8, Fasting / Proinsulin-C-peptide ratio - visit 8, 2 h after test meal / Proinsulin-C-peptide ratio - visit 8, Fasting: mean; for HOMA - change / Insulin-proinsulin ratio - change, 2 h after test meal / Insulin-proinsulin ratio - change, Fasting / C-peptide - change, 2 h after test meal / C-peptide - change, Fasting / Insulin - change, 2 h after test meal / Insulin - change, Fasting / Proinsulin - change, 2 h after test meal / Proinsulin - change, Fasting / HOMA - visit 8 / Insulin-proinsulin ratio - visit 8, 2 h after test meal / Insulin-proinsulin ratio - visit 8, Fasting / C-peptide - visit 8, 2 h after test meal / C-peptide - visit 8, Fasting / Insulin - visit 8, 2 h after test meal / Insulin - visit 8, Fasting / Proinsulin - visit 8, 2 h after test meal / Proinsulin - visit 8, Fasting: mean (SD); for C-peptide - change, 2 h after test meal / C-peptide - change, Fasting / Insulin - change, 2 h after test meal / Insulin - change, Fasting / Proinsulin - change, 2 h after test meal / Proinsulin - change, Fasting / C-peptide - visit 8, 2 h after test meal / C-peptide - visit 8, Fasting / Insulin - visit 8, 2 h after test meal / Insulin - visit 8, Fasting / Proinsulin - visit 8, 2 h after test meal / Proinsulin - visit 8, Fasting: unit as in Table 4; for Insulin-C-peptide ratio - visit 8, 2 h after test meal / Insulin-C-peptide ratio - visit 8, Fasting / Proinsulin-C-peptide ratio - visit 8, 2 h after test meal / Proinsulin-C-peptide ratio - visit 8, Fasting / HOMA - visit 8 / Insulin-proinsulin ratio - visit 8, 2 h after test meal / Insulin-proinsulin ratio - visit 8, Fasting / C-peptide - visit 8, 2 h after test meal / C-peptide - visit 8, Fasting / Insulin - visit 8, 2 h after test meal / Insulin - visit 8, Fasting / Proinsulin - visit 8, 2 h after test meal / Proinsulin - visit 8, Fasting: week 36
Experimental: (§1) Below is a list of the various target parameters: • Protection of the β-cells by early insulin therapy • C-Peptide (fasting and 2 h pp after TM) • Proinsulin (fasting and 2 h pp after TM) • Glycemic variability: • Glycemic load • Standard deviation (SD), • MAGE • HbA1c • Anti-inflammatory action of insulin: • Biomarkers of subclinical inflammation (fasting and 2 h pp) • hsCRP, • PAI-1, • Leukocyte count • Back-up samples for determining • MMP9 • ADMA • Adiponectin • Effect on endothelial function • Endothelial function at ball of thumb using laser Doppler (O2C) • Effect on renal function • Microalbuminuria (albumin/creatinine ratio) • Serum creatinine • Risk of hypoglycemia • Hypoglycemic intervals (time<3 mmol glucose) during CGM over 48 hours (day 2+3 after TM) • Free fatty acids
Test meal: On the morning of the 2nd day of the CGM, there is a standardized test meal in the trial center. This test meal (TM) consists of 95 g of whole-wheat bread, 20 g of margarine, 25 g of fruit preserves, 25 g of cheese, 200 ml of orange juice, 200 ml of milk mix with banana, strawberry or cocoa with a total of 560 Kcal. Blood is taken from the patient prior to the TM (after night-time fasting period of at least 8 hours). Subsequently, the TM should be eaten within 15 min. From the 1st bite, the time is measured, and after 2 h have elapsed, a 2nd blood collection is performed. During the TM and during the two hours thereafter, the patient should move as little as possible so as not to falsify the monitoring.
• HbA1c chromatographically by HLPC (device: TOSOH A1c) • Plasma glucose by enzymatic UV test HK (device: Selectra) • Creatinine in urine by PAP test (enzyme-photometrically) (device: Selectra) • Albumin in urine (spontaneous) by immunoturbidimetric method (device: Selectra) • Microalbuminuria (calculated: albumin/creatinine ratio) • Serum creatinine enzyme-photometrically by means of creatinine PAP test (device: Selectra) • ALAT, ASAT by optimized UV method according to IFCC (device: Selectra) • Insulin by ELISA (solid-phase enzyme immunoassay; device: Anthos) • C-peptide by ELISA (solid-phase enzyme immunoassay; device: Anthos) • Proinsulin (intact) (solid-phase enzyme immunoassay; device: Anthos) • Triglycerides by GPO-PAP method (device: Selectra) • HDL cholesterol by enzymatic test (device: Selectra) • LDL cholesterol by enzymatic test (device: Selectra) • Free fatty acids by photometric method (NEFA) (device: Selektra) • hsCRP by immunoturbidimetric method (device: Selectra) • PAI-1 (plasminogen activator inhibitor active antigen) bioimmunoassay • Leukocyte count by electronic counting • Pregnancy test (urine dipstick)
In the study in the previous examples, 75 patients (45 men, 30 women, mean age: 60.7±9.2 years) were examined, whose first diagnosis of type 2 diabetes dated back to less than 5 years and whose HbA1c level was between 6.5 and 8.5%. The patients were treated with either metformin (MET, 1000 mg b.i.d. (n=3)) or insulin glargine (GLA) q.d. just before bedtime (n=3). The insulin dose was adjusted for a target plasma glucose concentration (FPG) of ≦5.6 mmol/L according to a standardized titration algorithm. At the start and end of the study, the HbA1c level and the plasma glucose, proinsulin and C-peptide concentrations were determined. […] All the patients received a standardized test meal on the second day of the continuous glucose monitoring for comparison of the interindividual postprandial (pp) glucose excursions.

type 2 diabetes patients [2] = test: Hypoglycemic events and low interstitial glucose periods during CGM; assay type: in vivo, human; conditions: early treatment with GLA vs. MET
Experimental: as §1, with “acids […]” for “acids”

type 2 diabetes patients [3] = test: Pilot study with insulin glargine with a CGMS; assay type: in vivo, human; conditions: compared to metformin
[4] = human, in vivo
Experimental: (§2) • Checking the inclusion/exclusion criteria • Physical examination • Measuring body weight, waist/hip measurement, blood pressure, pulse • Recording the change in concomitant medication and concomitant conditions • Recording AEs and SAEs • Applying the CGMS for up to 72 h, briefing and training the patient • Randomization: • Group A: Titrating insulin glargine to target level of fasting plasma glucose (5.6 mmol/l (100 mg/dl)) • Briefing and training the patients in insulin use (Depending on the organization, training measures can be implemented during the overall visit 1 a-c.) • Group B: 500 mg of metformin tid • Pregnancy test, if applicable. • Laser Doppler measurement; only at center 01 and 02
(§3) • Recording the change in concomitant medication • Recording AEs and SAEs • Physical examination • Measuring body weight, waist/hip measurement, blood pressure, pulse • Applying the CGMS for up to 72 h, briefing and training the patient • Drug accountability/compliance (registering the used-up medication) • Laser Doppler measurement, only at center 01 and 02

type 2 diabetes patients [5] = conditions: background statement; cited from earlier work
type 2 diabetes patients [6] = conditions: ORIGIN-CGMS substudy, cited from earlier work
type 2 diabetes patients [7] = conditions: cited from earlier work
[8] = Body weight, BMI, abdominal and hip measurement in the clinical trial
Experimental: as §2, §3

[9] = per protocol, change visit 1 to visit 8, mean (SD), unit as in Table 4

## Insulin glargine
Type 2 diabetes patients [1]
  ratio of proinsulin to C-peptide: significant reduction
  Insulin-C-peptide ratio - change, 2 h after test meal: −24587.4
  Insulin-C-peptide ratio - change, Fasting: 46799.3
  Proinsulin-C-peptide ratio - change, 2 h after test meal: −2496.6
  Proinsulin-C-peptide ratio - change, Fasting: −1174.8
  HOMA - change: 77.2 (98.0)
  Insulin-proinsulin ratio - change, 2 h after test meal: 8.2 (9.4)
  Insulin-proinsulin ratio - change, Fasting: 16.4 (12.4)
  C-peptide - change, 2 h after test meal: −0.6 (2.4) nmol/l
  C-peptide - change, Fasting: −1.2 (1.1) nmol/l
  Insulin - change, 2 h after test meal: 6.5 (38.4) mU/l
  Insulin - change, Fasting: 2.7 (6.7) mU/l
  Proinsulin - change, 2 h after test meal: −11.1 (26.8) pmol/l
  Proinsulin - change, Fasting: −7.6 (10.8) pmol/l
  Insulin-C-peptide ratio - visit 8, 2 h after test meal: 59822.8
  Insulin-C-peptide ratio - visit 8, Fasting: 80748.4
  Proinsulin-C-peptide ratio - visit 8, 2 h after test meal: 3578.2
  Proinsulin-C-peptide ratio - visit 8, Fasting: 3537.8
  HOMA - visit 8: 127.9 (99.3)
  Insulin-proinsulin ratio - visit 8, 2 h after test meal: 20.7 (11.8)
  Insulin-proinsulin ratio - visit 8, Fasting: 24.5 (11.7)
  C-peptide - visit 8, 2 h after test meal: 6.7 (3.1) nmol/l
  C-peptide - visit 8, Fasting: 1.6 (0.9) nmol/l
  Insulin - visit 8, 2 h after test meal: 62.6 (51.8) mU/l
  Insulin - visit 8, Fasting: 14.6 (8.8) mU/l
  Proinsulin - visit 8, 2 h after test meal: 26.8 (29.0) pmol/l
  Proinsulin - visit 8, Fasting: 5.4 (5.0) pmol/l
Type 2 diabetes patients [1]; early treatment, compared to standard treatment with MET
  beta-cell function: improvement in beta-cell function
Type 2 diabetes patients [2]
  number of hypoglycemic events: no rise in the number of hypoglycemic events
Type 2 diabetes patients [3]
  control of postprandial hyperglycemia: improved control of postprandial hyperglycemia compared to metformin
[4]
  Abdomen - change: 1.1 (3.7) cm
  Abdomen - visit 8: 104.3 (10.7) cm
  BMI - change: −0.5 (1.3) kg/m^2
  BMI - visit 8: 29.9 (4.1) kg/m^2
  Hip - 8th visit: 108.6 (9.4) cm
  Hip - change: 1.6 (4.1) cm
  weight gained: 1.5 ± 3.8 kg
Type 2 diabetes patients [5]
  serious adverse reactions: without serious adverse reactions such as severe hypoglycemias
  stable HbA1c level achieved: around 6%
Type 2 diabetes patients [6]
  difference in the AUC TM for BG vs. standard treatment (predominantly metformin therapy): 15%
Type 2 diabetes patients [6]; standard deviation 179
  difference in the AUC TM for BG vs. standard treatment (predominantly metformin therapy): 127 mmol*120 min

## CN(C)C(=N)N=C(N)N [Metformin]
Type 2 diabetes patients [1]
  ratio of proinsulin to C-peptide: significant reduction
  Insulin-C-peptide ratio - change, 2 h after test meal: −38956.8
  Insulin-C-peptide ratio - change, Fasting: −25386.1
  Proinsulin-C-peptide ratio - change, 2 h after test meal: −1668.7
  Proinsulin-C-peptide ratio - change, Fasting: −1386.3
  HOMA - change: 4.4 (19.5)
  Insulin-proinsulin ratio - change, 2 h after test meal: 3.0 (8.4)
  Insulin-proinsulin ratio - change, Fasting: 2.9 (7.6)
  C-peptide - change, 2 h after test meal: −0.1 (2.0) nmol/l
  C-peptide - change, Fasting: −0.3 (0.8) nmol/l
  Insulin - change, 2 h after test meal: −11.1 (30.2) mU/l
  Insulin - change, Fasting: −2.7 (3.6) mU/l
  Proinsulin - change, 2 h after test meal: −6.9 (14.5) pmol/l
  Proinsulin - change, Fasting: −3.2 (4.2) pmol/l
  Insulin-C-peptide ratio - visit 8, 2 h after test meal: 41915.2
  Insulin-C-peptide ratio - visit 8, Fasting: 25456.9
  Proinsulin-C-peptide ratio - visit 8, 2 h after test meal: 2458.1
  Proinsulin-C-peptide ratio - visit 8, Fasting: 2142.4
  HOMA - visit 8: 56.3 (34.5)
  Insulin-proinsulin ratio - visit 8, 2 h after test meal: 24.7 (27.1)
  Insulin-proinsulin ratio - visit 8, Fasting: 16.7 (17.4)
  C-peptide - visit 8, 2 h after test meal: 7.9 (3.4) nmol/l
  C-peptide - visit 8, Fasting: 2.7 (1.1) nmol/l
  Insulin - visit 8, 2 h after test meal: 50.8 (39.7) mU/l
  Insulin - visit 8, Fasting: 10.0 (6.0) mU/l
  Proinsulin - visit 8, 2 h after test meal: 20.4 (19.9) pmol/l
  Proinsulin - visit 8, Fasting: 5.8 (4.6) pmol/l
Type 2 diabetes patients [7]; after one to two years, UK-PDS and DIG study
  patients additionally receiving sulfonylureas or other combinations with oral antidiabetics: over 50%
Type 2 diabetes patients [7]; background statement
  patients with stomach complaints, disturbances in appetite and, very rarely, allergies: approximately 10%
Type 2 diabetes patients [7]; reference [17]
  cases in which not tolerated: approximately 15%
[8]; abdominal circumference, per protocol, week 36, mean (SD), unit as in Table 4
  Abdomen - visit 8: 100.5 (13.7) cm
[8]; hip measurement, per protocol, week 36, mean (SD), unit as in Table 4
  Hip - 8th visit: 108.0 (11.6) cm
[8]; over the study, vs. GLA p<0.001
  weight loss: 3.0 ± 4.3 kg
[8]; [9]
  Abdomen - change: −2.0 (4.1) cm
  BMI - change: 1.0 (1.4) kg/m^2
  Hip - change: −1.6 (4.1) cm
[8]; per protocol, week 36, mean (SD), unit as in Table 4
  BMI - visit 8: 29.3 (5.3) kg/m^2
